Assay results reported in PubChem BioAssay (NCI).
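All cell lines were grown in 96-well plates and treated with compound for 48 hours. At the GI50, growth is halved. TGI: concentration producing complete growth inhibition.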

What was measured:
Test in all cases: NCI tumour cell line growth inhibition, 48 h
HT29 colon = system: HT29 colon
M14 melanoma = system: M14 melanoma
HOP-62 NSCLC = system: HOP-62 NSCLC
SK-MEL-5 melanoma = system: SK-MEL-5 melanoma
MALME-3M melanoma = system: MALME-3M melanoma
NCI-H226 lung = system: NCI-H226 lung
NCI-H522 lung = system: NCI-H522 lung
SW-620 colon = system: SW-620 colon
NCI-H460 lung = system: NCI-H460 lung
SK-MEL-28 melanoma = system: SK-MEL-28 melanoma
SF-295 CNS = system: SF-295 CNS
DU-145 prostate = system: DU-145 prostate
BT-549 breast = system: BT-549 breast

SMILES	GI50 (HT29 colon)	TGI (HT29 colon)	GI50 (M14 melanoma)	TGI (M14 melanoma)	GI50 (HOP-62 NSCLC)	TGI (HOP-62 NSCLC)	TGI (SK-MEL-5 melanoma)	TGI (MALME-3M melanoma)	GI50 (NCI-H226 lung)	TGI (NCI-H226 lung)	GI50 (NCI-H522 lung)	TGI (NCI-H522 lung)	GI50 (SW-620 colon)	TGI (SW-620 colon)	GI50 (NCI-H460 lung)	TGI (NCI-H460 lung)	TGI (SK-MEL-28 melanoma)	TGI (SF-295 CNS)	TGI (DU-145 prostate)	TGI (BT-549 breast)
COc1cc(Cn2c3ccccc3c3cc(C)cc(OC)c32)cc2c1[nH]c1ccccc12	16.9 µM	> 25 µM	6.27 µM	20.2 µM	6.63 µM	17.4 µM	> 25 µM	> 25 µM	17 µM	> 25 µM	5.43 µM	21 µM	13.4 µM	> 25 µM	10.8 µM	> 25 µM	> 25 µM			
COc1cc2cnc3c4cc(O)ccc4ccc3c2cc1OC		> 100 µM		> 100 µM		> 100 µM	> 100 µM	> 100 µM		> 100 µM		70.9 µM		> 100 µM		> 100 µM	> 100 µM	> 100 µM		
CN(CCO)c1nc(=O)c2c(n1C1OC(CO)C(O)C(O)C1O)CCCC2 (stereo unspecified)		> 100 µM		> 100 µM		> 100 µM	> 100 µM	> 100 µM		> 100 µM		> 100 µM		> 100 µM		> 100 µM	> 100 µM	> 100 µM		
CC(C)OP(=O)(OC(C)C)/C(=N/Nc1ccc([N+](=O)[O-])cc1)NNC(=O)c1ccccc1				> 100 µM		> 100 µM	32 µM	> 100 µM		> 100 µM		> 100 µM		> 100 µM		> 100 µM	91.3 µM			
C[C@H]1[C@H](C)CC[C@]2(C(=O)O)CCC3(COC(=O)/C=C/c4ccc(O)cc4)C(=CCC4[C@@]5(C)CC[C@H](O)C(C)(C)C5CC[C@]43C)[C@H]12 (stereo partly specified)		18.6 µM		24.9 µM		23 µM	24.4 µM	37.2 µM		23.4 µM		17.1 µM		18 µM		11.2 µM	22.9 µM	13.2 µM		
CCCCCCC(O)C(=O)OC1C2C(CC1(C)C)C(O)C13OC1C(O)C1(CO1)[C@@]23C (stereo partly specified)				> 100 µM		> 100 µM	40.9 µM	> 100 µM				> 100 µM					> 100 µM	> 100 µM	> 100 µM	> 100 µM
O=C(O)c1ccccc1/C=N\N(CCO)C1=NCCN1		> 100 µM		> 100 µM		> 100 µM	> 100 µM	> 100 µM		> 100 µM				> 100 µM		> 100 µM	> 100 µM	> 100 µM	> 100 µM	> 100 µM
CC(/C=C1\CCC(CN(C)C)C1=O)c1cccc(Br)c1 (stereo unspecified)		20.7 µM		29.2 µM		42.2 µM	18.8 µM	32.4 µM		48.8 µM		22 µM		26.2 µM		> 70.2 µM	31.5 µM	42.3 µM		
O=C(O)c1ccc(Nc2nc3ccc(C(F)(F)F)cc3nc2-c2ccccc2)cc1		> 10 µM		> 100 µM		> 100 µM	> 100 µM	> 100 µM		> 100 µM		> 100 µM		> 100 µM		> 100 µM	> 100 µM	> 100 µM	> 10 µM	
COc1c(N2CCCCC2)c2c(=O)c3ccccc3oc2c2c3ccccc3n(C)c12		> 100 µM		> 100 µM		> 100 µM	> 100 µM	> 100 µM		> 100 µM				> 100 µM		> 100 µM	> 100 µM	> 100 µM	> 100 µM	> 100 µM
COc1ccccc1NC(=O)C(=O)C(c1cnc2ccc([N+](=O)[O-])cc2n1)[N+](=O)[O-] (stereo unspecified)		> 100 µM		> 100 µM		> 100 µM	> 100 µM	> 100 µM		> 100 µM		> 100 µM		> 100 µM		> 100 µM	> 100 µM	> 100 µM		
O=C(O)CCC1(CCC(=O)O)CCCCCCCCC(CCC(=O)O)(CCC(=O)O)C(=O)C1=O		> 100 µM		> 100 µM		> 100 µM		> 100 µM		> 100 µM		> 100 µM		> 100 µM		> 100 µM	> 100 µM	> 100 µM	> 100 µM	
COc1cc2c(c(OC)c1)C(=O)C(=O)C(CC1(C)OCCCO1)=C2		35 µM		24.3 µM		32.6 µM	18.1 µM	20.4 µM		19.6 µM		2.7 µM		3.23 µM		26.6 µM	28.6 µM	27.1 µM		
Cc1cc2nc3c(C#N)c4c(c(Cl)n3c2cc1C)CCC4						> 100 µM	50.1 µM	> 100 µM		> 100 µM		32.5 µM		39.3 µM		> 100 µM	88.9 µM	> 100 µM		49 µM
CC(NNC(=S)N1CCCC1)c1cccnn1 (stereo unspecified)		> 100 µM				> 31 µM	5.39 µM	> 100 µM		> 26.5 µM				> 100 µM		> 81.5 µM	> 31.6 µM	> 28.2 µM	> 70 µM	> 56.1 µM
CCCC1(N2C(=O)c3ccc4c5c(ccc(c35)C2=O)N(C2(CCC)CCCCC2)C4=O)CCCCC1		> 100 µM		> 100 µM		> 100 µM	> 100 µM	> 100 µM				> 100 µM		> 100 µM		> 100 µM	> 100 µM	> 100 µM	> 100 µM	
S=C1C(CCCOCc2ccccc2)C2CCCC23CC2(CCN13)OCCS2 (stereo unspecified)		> 10 µM		> 10 µM		> 10 µM	> 10 µM	> 10 µM		> 10 µM		> 10 µM		> 10 µM		> 10 µM	> 10 µM	> 10 µM	> 10 µM	
CC(=O)OC1CC2C(=O)CC1(C)C2(C)C (stereo unspecified)		> 100 µM		> 100 µM		> 100 µM	> 100 µM	> 100 µM		> 100 µM		> 100 µM		> 100 µM		> 100 µM	> 100 µM	> 100 µM	> 100 µM	
CC(Cn1c(=O)oc2ccccc21)N(C)C (stereo unspecified)		> 100 µM		> 100 µM		> 100 µM	> 100 µM	> 100 µM		> 100 µM				> 100 µM		> 100 µM	> 100 µM	> 100 µM	> 100 µM	> 100 µM
